Reference: ChEMBL document CHEMBL2010722, “Structure-activity relationship study of beta-carboline derivatives as haspin kinase inhibitors” (Bioorg Med Chem Lett, 2012)

Experiments:
[1] = target: Serine/threonine-protein kinase N1 (Homo sapiens) (UniProt Q16512); experiment: Inhibition of PKN1 at 10 uM
[2] = target: Tyrosine-protein kinase Lyn (Homo sapiens) (UniProt P07948); experiment: Inhibition of LYNb at 10 uM
[3] = target: SRSF protein kinase 3 (Homo sapiens) (UniProt Q9UPE1); experiment: Inhibition of MSSK1 (SRPK3) at 10 uM
[4] = target: Serine/threonine-protein kinase Nek6 (Homo sapiens) (UniProt Q9HC98); experiment: Inhibition of NEK6 at 10 uM
[5] = target: T1, Serine/threonine-protein kinase haspin (Homo sapiens, UniProt Q8TF76)
T1 sequence (Q8TF76 whole entry): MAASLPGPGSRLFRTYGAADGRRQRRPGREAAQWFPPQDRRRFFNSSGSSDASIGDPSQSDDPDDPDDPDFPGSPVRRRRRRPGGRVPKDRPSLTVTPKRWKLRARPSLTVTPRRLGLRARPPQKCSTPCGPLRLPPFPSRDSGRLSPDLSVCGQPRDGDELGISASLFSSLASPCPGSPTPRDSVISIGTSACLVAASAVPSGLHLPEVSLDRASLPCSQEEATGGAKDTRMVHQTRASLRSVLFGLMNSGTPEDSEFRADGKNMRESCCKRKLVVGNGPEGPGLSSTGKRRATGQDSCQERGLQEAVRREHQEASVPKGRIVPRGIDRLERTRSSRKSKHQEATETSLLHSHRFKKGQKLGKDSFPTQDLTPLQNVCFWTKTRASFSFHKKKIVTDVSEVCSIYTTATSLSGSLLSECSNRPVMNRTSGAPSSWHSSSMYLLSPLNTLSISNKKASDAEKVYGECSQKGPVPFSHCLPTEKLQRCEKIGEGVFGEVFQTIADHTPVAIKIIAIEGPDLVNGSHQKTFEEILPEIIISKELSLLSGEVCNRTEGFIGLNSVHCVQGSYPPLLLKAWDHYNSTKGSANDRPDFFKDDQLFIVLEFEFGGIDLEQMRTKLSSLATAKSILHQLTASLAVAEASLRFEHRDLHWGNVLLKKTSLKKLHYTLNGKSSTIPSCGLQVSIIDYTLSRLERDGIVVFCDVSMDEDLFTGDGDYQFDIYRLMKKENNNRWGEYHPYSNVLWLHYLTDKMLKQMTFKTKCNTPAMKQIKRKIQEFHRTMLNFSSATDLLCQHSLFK

[6] = system: ALK tyrosine kinase receptor (Homo sapiens), Q9UM73 [R1275Q]; experiment: Inhibition of ALK R1275Q mutant at 10 uM
[7] = system: Epidermal growth factor receptor (Homo sapiens), P00533 [L861Q]; experiment: Inhibition of EGFR L861Q mutant at 10 uM; format: protein assay
[8] = target: Dual specificity protein kinase CLK3 (Homo sapiens) (UniProt P49761); experiment: Inhibition of CLK3 at 10 uM
[9] = target: Platelet-derived growth factor receptor alpha (Homo sapiens) (UniProt P16234); experiment: Inhibition of PDGFRa at 10 uM
[10] = target: RAC-alpha serine/threonine-protein kinase (Homo sapiens) (UniProt P31749); experiment: Inhibition of AKT1 at 10 uM
[11] = target: Protein kinase C eta type (Homo sapiens) (UniProt P24723); experiment: Inhibition of PKCh at 10 uM
[12] = target: Serine/threonine-protein kinase WNK1 (Homo sapiens) (UniProt Q9H4A3); experiment: Inhibition of WNK1 at 10 uM
[13] = target: Serine/threonine-protein kinase MARK1 (Homo sapiens) (UniProt Q9P0L2); experiment: Inhibition of MARK1 at 10 uM
[14] = target: Mitogen-activated protein kinase 1 (Homo sapiens) (UniProt P28482); experiment: Inhibition of Erk2 at 10 uM
[15] = target: Ribosomal protein S6 kinase alpha-5 (Homo sapiens) (UniProt O75582); experiment: Inhibition of MSK1 N-terminal at 10 uM
[16] = target: Ephrin type-B receptor 3 (Homo sapiens) (UniProt P54753); experiment: Inhibition of EPHB3 at 10 uM
[17] = system: Mast/stem cell growth factor receptor Kit (Homo sapiens), P10721 [V560G]; experiment: Inhibition of KIT V560G mutant at 10 uM
[18] = target: Cyclin-dependent kinase 2/cyclin A (Homo sapiens) (UniProt P24941+P20248+P78396); experiment: Inhibition of CDK2-Cyclin A2 at 10 uM; format: protein-complex assay
[19] = system: Epidermal growth factor receptor (Homo sapiens), P00533 [T790M]; experiment: Inhibition of EGFR T790M mutant at 10 uM; format: protein assay
[20] = target: Proto-oncogene tyrosine-protein kinase Src (Homo sapiens) (UniProt P12931); experiment: Inhibition of SRC at 10 uM
[21] = target: [Pyruvate dehydrogenase (acetyl-transferring)] kinase isozyme 2, mitochondrial (Homo sapiens) (UniProt Q15119); experiment: Inhibition of PDHK2 at 10 uM
[22] = target: MAP kinase-activated protein kinase 5 (Homo sapiens) (UniProt Q8IW41); experiment: Inhibition of MAPKAPK5 at 10 uM
[23] = target: Ephrin type-A receptor 7 (Homo sapiens) (UniProt Q15375); experiment: Inhibition of EPHA7 at 10 uM
[24] = target: Testis-specific serine/threonine-protein kinase 1 (Homo sapiens) (UniProt Q9BXA7); experiment: Inhibition of TSSK1 at 10 uM
[25] = target: Rho-associated protein kinase 1 (Homo sapiens) (UniProt Q13464); experiment: Inhibition of ROCK1 at 10 uM
[26] = target: MAP/microtubule affinity-regulating kinase 4 (Homo sapiens) (UniProt Q96L34); experiment: Inhibition of MARK4 at 10 uM
[27] = target: Serine/threonine-protein kinase PAK 4 (Homo sapiens) (UniProt O96013); experiment: Inhibition of PAK4 at 10 uM
[28] = target: Protein kinase C iota type (Homo sapiens) (UniProt P41743); experiment: Inhibition of PKCi at 10 uM
[29] = target: Casein kinase II alpha'/ beta (Homo sapiens) (UniProt P67870+P19784); experiment: Inhibition of CK2a2/b at 10 uM; format: protein-complex assay
TAK1/TAB1 (Homo sapiens) = TAK1/TAB1 (Homo sapiens) (UniProt Q15750+O43318); experiment: Inhibition of TAK1-TAB1 at 10 uM; format: protein-complex assay
[30] = system: Epidermal growth factor receptor (Homo sapiens), P00533 [L858R]; experiment: Inhibition of EGFR L858R mutant at 10 uM; format: protein assay

Sequence of Epidermal growth factor receptor (Homo sapiens), P00533 [L861Q] (P00533 whole entry L861Q): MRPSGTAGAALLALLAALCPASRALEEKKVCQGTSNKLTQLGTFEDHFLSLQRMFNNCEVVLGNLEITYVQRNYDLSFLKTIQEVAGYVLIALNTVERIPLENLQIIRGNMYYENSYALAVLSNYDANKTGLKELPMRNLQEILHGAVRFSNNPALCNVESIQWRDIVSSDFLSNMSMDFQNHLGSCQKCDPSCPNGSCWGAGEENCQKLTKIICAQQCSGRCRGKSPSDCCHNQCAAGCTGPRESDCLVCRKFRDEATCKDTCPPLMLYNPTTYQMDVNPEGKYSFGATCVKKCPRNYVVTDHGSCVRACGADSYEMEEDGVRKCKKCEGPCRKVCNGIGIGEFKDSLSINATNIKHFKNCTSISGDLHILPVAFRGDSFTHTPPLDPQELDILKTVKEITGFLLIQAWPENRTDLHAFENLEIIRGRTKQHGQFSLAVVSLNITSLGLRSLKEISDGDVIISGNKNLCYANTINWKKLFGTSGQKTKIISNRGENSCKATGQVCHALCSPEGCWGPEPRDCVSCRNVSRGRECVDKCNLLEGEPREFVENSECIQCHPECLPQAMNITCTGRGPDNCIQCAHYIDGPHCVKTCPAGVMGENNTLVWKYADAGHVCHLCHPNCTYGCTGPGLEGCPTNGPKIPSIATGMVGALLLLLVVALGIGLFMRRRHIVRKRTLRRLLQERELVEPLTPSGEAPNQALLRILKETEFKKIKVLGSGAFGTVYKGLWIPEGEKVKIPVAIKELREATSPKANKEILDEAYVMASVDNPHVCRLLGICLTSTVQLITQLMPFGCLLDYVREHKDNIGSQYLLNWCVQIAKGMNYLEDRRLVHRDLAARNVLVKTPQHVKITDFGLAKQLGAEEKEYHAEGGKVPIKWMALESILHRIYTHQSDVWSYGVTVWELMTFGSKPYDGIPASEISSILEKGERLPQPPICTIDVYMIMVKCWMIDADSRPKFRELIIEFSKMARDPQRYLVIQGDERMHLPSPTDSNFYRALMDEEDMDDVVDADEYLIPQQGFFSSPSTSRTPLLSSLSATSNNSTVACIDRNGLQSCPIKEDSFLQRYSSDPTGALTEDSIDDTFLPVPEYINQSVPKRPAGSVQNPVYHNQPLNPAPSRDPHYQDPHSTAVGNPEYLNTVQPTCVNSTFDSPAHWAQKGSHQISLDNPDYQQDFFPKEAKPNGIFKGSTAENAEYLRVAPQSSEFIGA
Sequence of Protein kinase C iota type (Homo sapiens) (P41743 whole entry): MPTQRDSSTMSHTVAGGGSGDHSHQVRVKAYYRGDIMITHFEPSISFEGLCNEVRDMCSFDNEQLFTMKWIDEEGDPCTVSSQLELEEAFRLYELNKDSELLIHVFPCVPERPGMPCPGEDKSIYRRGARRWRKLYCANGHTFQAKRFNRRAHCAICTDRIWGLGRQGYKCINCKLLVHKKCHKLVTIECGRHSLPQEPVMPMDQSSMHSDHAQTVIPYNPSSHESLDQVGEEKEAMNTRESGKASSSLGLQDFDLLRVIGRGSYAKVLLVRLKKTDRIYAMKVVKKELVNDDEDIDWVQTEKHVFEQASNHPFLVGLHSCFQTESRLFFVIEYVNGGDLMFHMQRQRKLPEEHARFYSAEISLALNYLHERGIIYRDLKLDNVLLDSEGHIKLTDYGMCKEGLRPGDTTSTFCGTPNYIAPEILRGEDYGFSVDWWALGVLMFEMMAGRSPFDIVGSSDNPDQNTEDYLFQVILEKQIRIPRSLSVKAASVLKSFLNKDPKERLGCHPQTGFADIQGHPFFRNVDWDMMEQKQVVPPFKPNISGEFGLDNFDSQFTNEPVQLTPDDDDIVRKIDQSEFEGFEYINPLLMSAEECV
Sequence of Rho-associated protein kinase 1 (Homo sapiens) (Q13464 2-1354 limits assumed): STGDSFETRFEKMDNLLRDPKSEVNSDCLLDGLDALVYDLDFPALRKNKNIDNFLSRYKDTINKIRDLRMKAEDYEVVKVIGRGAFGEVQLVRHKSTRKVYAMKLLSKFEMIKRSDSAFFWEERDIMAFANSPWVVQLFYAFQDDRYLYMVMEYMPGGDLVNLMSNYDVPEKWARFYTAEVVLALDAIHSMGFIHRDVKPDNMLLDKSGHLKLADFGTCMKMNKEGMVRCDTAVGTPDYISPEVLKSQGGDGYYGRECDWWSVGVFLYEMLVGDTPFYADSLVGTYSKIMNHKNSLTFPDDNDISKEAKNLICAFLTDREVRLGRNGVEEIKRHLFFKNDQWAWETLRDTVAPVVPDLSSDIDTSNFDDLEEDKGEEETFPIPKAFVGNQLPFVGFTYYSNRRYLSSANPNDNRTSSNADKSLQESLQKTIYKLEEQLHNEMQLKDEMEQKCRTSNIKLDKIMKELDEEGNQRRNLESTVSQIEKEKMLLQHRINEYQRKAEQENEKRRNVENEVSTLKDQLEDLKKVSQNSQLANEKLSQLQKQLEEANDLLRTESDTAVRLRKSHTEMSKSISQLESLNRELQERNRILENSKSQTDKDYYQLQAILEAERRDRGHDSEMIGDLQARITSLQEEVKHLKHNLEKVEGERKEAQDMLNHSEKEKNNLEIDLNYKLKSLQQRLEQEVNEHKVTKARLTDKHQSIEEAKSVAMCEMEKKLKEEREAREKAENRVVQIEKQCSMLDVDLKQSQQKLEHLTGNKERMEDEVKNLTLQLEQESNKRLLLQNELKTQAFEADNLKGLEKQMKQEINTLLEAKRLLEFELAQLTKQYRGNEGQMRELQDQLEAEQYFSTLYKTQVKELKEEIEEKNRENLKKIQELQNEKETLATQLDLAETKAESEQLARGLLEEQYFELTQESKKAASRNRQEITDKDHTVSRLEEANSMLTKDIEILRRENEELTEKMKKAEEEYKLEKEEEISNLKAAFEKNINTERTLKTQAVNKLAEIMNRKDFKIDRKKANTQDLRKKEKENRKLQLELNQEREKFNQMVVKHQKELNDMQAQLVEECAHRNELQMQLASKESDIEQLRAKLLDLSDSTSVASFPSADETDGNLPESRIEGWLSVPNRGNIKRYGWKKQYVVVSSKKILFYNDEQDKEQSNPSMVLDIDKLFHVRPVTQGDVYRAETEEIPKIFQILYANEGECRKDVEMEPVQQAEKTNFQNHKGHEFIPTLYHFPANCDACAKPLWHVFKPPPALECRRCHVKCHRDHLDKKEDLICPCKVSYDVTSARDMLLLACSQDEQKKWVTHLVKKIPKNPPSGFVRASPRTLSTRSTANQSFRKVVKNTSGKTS
Sequence of Proto-oncogene tyrosine-protein kinase Src (Homo sapiens) (P12931 2-536 limits assumed): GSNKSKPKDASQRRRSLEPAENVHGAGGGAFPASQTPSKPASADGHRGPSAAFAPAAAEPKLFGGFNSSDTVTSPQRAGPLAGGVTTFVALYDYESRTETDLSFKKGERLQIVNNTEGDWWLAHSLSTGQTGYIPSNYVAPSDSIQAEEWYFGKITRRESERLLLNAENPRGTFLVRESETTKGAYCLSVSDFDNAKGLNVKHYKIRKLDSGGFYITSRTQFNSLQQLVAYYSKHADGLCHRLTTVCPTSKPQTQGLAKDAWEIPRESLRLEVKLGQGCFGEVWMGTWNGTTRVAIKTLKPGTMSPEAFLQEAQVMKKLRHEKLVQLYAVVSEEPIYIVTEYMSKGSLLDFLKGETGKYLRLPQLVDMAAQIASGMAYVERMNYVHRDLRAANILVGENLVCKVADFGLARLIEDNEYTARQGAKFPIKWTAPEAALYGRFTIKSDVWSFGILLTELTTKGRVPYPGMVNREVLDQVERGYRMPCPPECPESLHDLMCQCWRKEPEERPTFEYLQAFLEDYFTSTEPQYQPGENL
Sequence of Ephrin type-A receptor 7 (Homo sapiens) (Q15375 28-998 limits assumed): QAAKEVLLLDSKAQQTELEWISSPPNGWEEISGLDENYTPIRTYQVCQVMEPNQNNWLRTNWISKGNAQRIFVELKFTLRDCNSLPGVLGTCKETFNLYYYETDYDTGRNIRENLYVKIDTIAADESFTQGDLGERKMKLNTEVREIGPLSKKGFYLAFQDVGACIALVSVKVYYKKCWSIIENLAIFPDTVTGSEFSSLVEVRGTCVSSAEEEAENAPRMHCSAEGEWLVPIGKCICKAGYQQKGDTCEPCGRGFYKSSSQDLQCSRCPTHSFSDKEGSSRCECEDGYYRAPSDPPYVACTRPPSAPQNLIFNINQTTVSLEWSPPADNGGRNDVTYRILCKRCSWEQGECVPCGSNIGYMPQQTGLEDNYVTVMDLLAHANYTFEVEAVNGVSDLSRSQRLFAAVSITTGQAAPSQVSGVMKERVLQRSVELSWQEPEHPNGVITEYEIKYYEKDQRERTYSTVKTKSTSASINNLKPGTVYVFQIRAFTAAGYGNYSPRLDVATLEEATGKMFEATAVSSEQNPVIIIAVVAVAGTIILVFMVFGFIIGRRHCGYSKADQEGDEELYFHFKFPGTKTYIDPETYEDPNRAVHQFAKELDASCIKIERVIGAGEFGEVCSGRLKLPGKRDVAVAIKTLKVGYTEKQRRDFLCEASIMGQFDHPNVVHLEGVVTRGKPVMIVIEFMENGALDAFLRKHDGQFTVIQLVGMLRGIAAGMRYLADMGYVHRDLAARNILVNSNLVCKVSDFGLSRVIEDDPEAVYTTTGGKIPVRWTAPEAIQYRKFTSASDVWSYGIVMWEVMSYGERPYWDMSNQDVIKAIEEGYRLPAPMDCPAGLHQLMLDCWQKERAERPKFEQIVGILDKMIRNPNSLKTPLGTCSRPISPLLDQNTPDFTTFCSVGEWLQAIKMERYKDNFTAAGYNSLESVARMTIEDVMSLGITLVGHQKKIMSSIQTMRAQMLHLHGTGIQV
Sequence of Mitogen-activated protein kinase 1 (Homo sapiens) (P28482 whole entry): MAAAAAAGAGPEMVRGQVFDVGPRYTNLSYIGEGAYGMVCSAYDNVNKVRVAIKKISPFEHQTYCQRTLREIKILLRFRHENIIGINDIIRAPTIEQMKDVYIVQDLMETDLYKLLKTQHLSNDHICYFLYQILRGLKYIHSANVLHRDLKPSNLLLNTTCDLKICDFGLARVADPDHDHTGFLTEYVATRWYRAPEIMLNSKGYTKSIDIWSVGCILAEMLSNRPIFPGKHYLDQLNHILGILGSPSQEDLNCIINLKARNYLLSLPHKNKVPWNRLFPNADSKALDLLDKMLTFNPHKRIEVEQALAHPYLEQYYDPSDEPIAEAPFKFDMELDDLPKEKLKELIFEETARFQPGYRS

With `COc1ccc2c3ccnc(C(F)(F)F)c3n(CCCCN)c2c1` as the compound, how does the inhibition [1] read?
Its inhibition is 52%.

What about the inhibition [2] of the same compound?
Its inhibition is 0%.

And the inhibition [3]?
The inhibition was 7%.

What about the inhibition [4] of the same compound?
The inhibition was 5%.

What about the IC50 [5] of the same compound?
The IC50 was 100 nM.

What about the inhibition [6] of the same compound?
The inhibition was 6%.

What about the inhibition [7] of the same compound?
The inhibition was 6%.

What about the inhibition [8] of the same compound?
The inhibition was 37%.

And the inhibition [9]?
The inhibition was 27%.

What about the inhibition [10] of the same compound?
Its inhibition is 23%.

And the inhibition [11]?
The inhibition was 77%.

And the inhibition [12]?
The inhibition was 5%.

What about the inhibition [13] of the same compound?
The inhibition was 48%.

What about the inhibition [14] of the same compound?
Its inhibition is 7%.

And the inhibition [15]?
The inhibition was 36%.

And the inhibition [16]?
The inhibition was 0%.

What about the inhibition [17] of the same compound?
Its inhibition is 16%.

What about the inhibition [18] of the same compound?
Its inhibition is 65%.

What about the inhibition [19] of the same compound?
Its inhibition is 3%.

And the inhibition [20]?
Its inhibition is 17%.

And the inhibition [21]?
Its inhibition is 0%.

What about the inhibition [22] of the same compound?
Its inhibition is 1%.

And the inhibition [23]?
Its inhibition is 2%.

What about the inhibition [24] of the same compound?
Its inhibition is 43%.

And the inhibition [25]?
The inhibition was 84%.

What about the inhibition [26] of the same compound?
Its inhibition is 50%.

What about the inhibition [27] of the same compound?
Its inhibition is 13%.

What about the inhibition [28] of the same compound?
Its inhibition is 9%.

And the inhibition [29]?
The inhibition was 1%.

What about the inhibition (TAK1/TAB1 (Homo sapiens)) of the same compound?
The inhibition was 12%.

And the inhibition [30]?
The inhibition was 10%.
